Data: US20060088573A1, “Composition having action preventing or alleviating symtoms or diseases due to aging of blood vessels” (Suntory Limited, priority 2003, published 2006)

System: thoracic arteries of old rats
Test: Acetylcholine blood vessel relaxation reaction test on thoracic artery rings after 3 months of diet
Assay type: in vivo, rat
Text: The effect of triglyceride (arachidonic acid-containing oil (SUNTGA40S)) having arachidonic acid as a component fatty acid prepared in Reference Example 1 on the acetylcholine blood vessel relaxation reaction was investigated using rats. As the test groups of old rats, 15 19-month old male Fischer rats were divided into a control diet group (8 rats: OC group) and a SUNTGA40S compound diet group (7 rats: OA group).
The amount of intake of rats was about 20 g and the daily intake of SUNTGA40S per rat was 100 mg. Of the total fatty acids bonded with the arachidonic acid-containing oil (SUNTGA40S) prepared in Reference Example 1, 40% is arachidonic acid, so the daily intake of arachidonic acid per rat became 40 mg. This 40 mg corresponds to 133 mg/60 kg/day converted to human intake.
In the third month of raising (in the case of old rats, 22-month age and in the case of young rats, four-month age), the thoracic arteries were excised. Part was used for the in vitro blood vessel relaxation reaction test, while the remaining blood vessels were used for analysis of the fatty acid composition. […]

CCCCC/C=C\C/C=C\C/C=C\C/C=C\CCCC(=O)OC(COC(=O)CCCCCCC)COC(=O)CCCCCCC [8A8, 1,3-capryloyl-2-arachidonoyl-glycerol]
average blood vessel relaxation rate by acetylcholine 10^-7M (old male Fischer rats (22-month age), 8A8 diet 3 months (40 mg arachidonic acid/rat/day), old control diet 52.3%, young control diet 80.5%): 62.7%
blood vessel relaxation response (old rats, 8A8 diet 3 months, vs old rats on control diet): improved
